According to the OligoGym collection:
HELM strings list units from the 5' end as sugar, base in round brackets, then linkage (d deoxyribose, r ribose, m 2'-O-methyl, p phosphodiester). Strings are as the collection lists them; they lack the last nucleoside at the 3' end of the tested compound. [moe] = 2'-O-(2-methoxyethyl) (MOE); [sp] = phosphorothioate linkage; [m5C] = 5-methylcytosine

Biological target: SCN2A
Test: mouse, dose not given
Conditions: ASO

Compared with “RNA1{[moe](T)[sp].[moe](G)p.[moe](A)p.[moe]([m5C])p.[moe]([m5C])p.[moe](A)p.d([m5C])[sp].d(G)[sp].d([m5C])[sp].d(T)[sp].d(T)[sp].d(A)[sp].d([m5C])[sp].d(A)[sp].d(T)[sp].d([m5C])[sp].[moe](A)p.[moe](A)[sp].[moe](A)}$$$$ (last 3' nucleoside missing)”, “RNA1{[moe](T)[sp].[moe](G)p.[moe](G)p.[moe](A)p.[moe]([m5C])p.[moe]([m5C])p.d(G)[sp].d(T)[sp].d([m5C])[sp].d(T)[sp].d([m5C])[sp].d(T)[sp].d(T)[sp].d(T)[sp].d([m5C])[sp].d(T)[sp].[moe](T)p.[moe](A)[sp].[moe](T)}$$$$ (last 3' nucleoside missing)” is lower in 3 h FOB score: 1 score 0-7 for the first, 0 score 0-7 for the second.

Going from “RNA1{[moe](T)[sp].[moe](G)p.[moe](G)p.[moe](A)p.[moe]([m5C])p.d([m5C])[sp].d(G)[sp].d(T)[sp].d([m5C])[sp].d(T)[sp].d([m5C])[sp].d(T)[sp].d(T)[sp].d(T)[sp].d([m5C])[sp].[moe](T)p.[moe](T)p.[moe](A)[sp].[moe](T)}$$$$ (last 3' nucleoside missing)” to “RNA1{[moe](T)[sp].[moe](G)p.[moe](G)p.[moe](G)p.[moe](T)p.d([m5C])[sp].d(T)[sp].d([m5C])[sp].d(T)[sp].d(T)[sp].d(A)[sp].d(G)[sp].d([m5C])[sp].d(T)[sp].d(T)[sp].[moe](T)p.[moe]([m5C])p.[moe](T)[sp].[moe]([m5C])}$$$$ (last 3' nucleoside missing)”, the 3 h FOB score rises from 1 score 0-7 to 1.33 score 0-7.

Compared with “RNA1{[moe](T)[sp].[moe](G)p.[moe](G)p.[moe]([m5C])p.[moe](T)p.d(A)[sp].d(T)[sp].d(A)[sp].d([m5C])[sp].d(T)[sp].d([m5C])[sp].d(A)[sp].d(T)[sp].d(T)[sp].d(G)[sp].[moe]([m5C])p.[moe](T)p.[moe]([m5C])[sp].[moe](T)}$$$$ (last 3' nucleoside missing)”, “RNA1{[moe](T)[sp].[moe](G)p.[moe](T)p.[moe](A)p.[moe](A)p.[moe]([m5C])p.d([m5C])[sp].d(T)[sp].d(T)[sp].d(T)[sp].d(A)[sp].d(T)[sp].d(A)[sp].d([m5C])[sp].d(A)[sp].d(T)[sp].[moe](T)p.[moe](T)[sp].[moe](A)}$$$$ (last 3' nucleoside missing)” is lower in 3 h FOB score: 1 score 0-7 for the first, 0 score 0-7 for the second.

“RNA1{[moe](T)[sp].[moe](G)p.[moe](T)p.[moe](A)p.[moe](A)p.d([m5C])[sp].d([m5C])[sp].d(T)[sp].d(T)[sp].d(T)[sp].d(A)[sp].d(T)[sp].d(A)[sp].d([m5C])[sp].d(A)[sp].[moe](T)p.[moe](T)p.[moe](T)[sp].[moe](A)}$$$$ (last 3' nucleoside missing)” and “RNA1{[moe](T)[sp].[moe](G)p.[moe](T)p.[moe](A)p.d(A)[sp].d([m5C])[sp].d([m5C])[sp].d(T)[sp].d(T)[sp].d(T)[sp].d(A)[sp].d(T)[sp].d(A)[sp].d([m5C])[sp].[moe](A)p.[moe](T)p.[moe](T)p.[moe](T)[sp].[moe](A)}$$$$ (last 3' nucleoside missing)” are the same in 3 h FOB score: 0 score 0-7 for the first, 0 score 0-7 for the second.

Going from “RNA1{[moe](T)[sp].[moe](G)p.[moe](T)p.[moe](T)p.[moe](T)p.d(G)[sp].d(G)[sp].d(G)[sp].d(T)[sp].d([m5C])[sp].d(T)[sp].d([m5C])[sp].d(T)[sp].d(T)[sp].d(A)[sp].[moe](G)p.[moe]([m5C])p.[moe](T)[sp].[moe](T)}$$$$ (last 3' nucleoside missing)” to “RNA1{[moe](T)[sp].[moe](G)p.[moe]([m5C])p.[moe](A)[sp].d(T)[sp].d(G)[sp].d(T)[sp].d(A)[sp].d(A)[sp].d([m5C])[sp].d([m5C])[sp].d(T)[sp].[moe](T)p.[moe](T)p.[moe](A)p.[moe](T)[sp].[moe](A)}$$$$ (last 3' nucleoside missing)”, the 3 h FOB score falls from 2.33 score 0-7 to 0 score 0-7.

“RNA1{[moe](T)[sp].[moe](G)p.[moe]([m5C])p.[moe](A)p.[moe](T)[sp].d(G)[sp].d(T)[sp].d(A)[sp].d(A)[sp].d([m5C])[sp].d([m5C])[sp].d(T)[sp].d(T)[sp].[moe](T)p.[moe](A)p.[moe](T)[sp].[moe](A)}$$$$ (last 3' nucleoside missing)” and “RNA1{[moe](T)[sp].[moe](G)p.[moe]([m5C])p.[moe](A)p.[moe](T)p.[moe](A)p.d(A)[sp].d(T)[sp].d([m5C])[sp].d([m5C])[sp].d([m5C])[sp].d(A)[sp].d(T)[sp].d(T)[sp].d(A)[sp].d(T)[sp].[moe](A)p.[moe]([m5C])[sp].[moe](A)}$$$$ (last 3' nucleoside missing)” are the same in 3 h FOB score: 0 score 0-7 for the first, 0 score 0-7 for the second.

“RNA1{[moe](T)[sp].[moe](G)p.[moe]([m5C])p.[moe](A)p.[moe](T)p.[moe](G)[sp].d(T)[sp].d(A)[sp].d(A)[sp].d([m5C])[sp].d([m5C])[sp].d(T)[sp].d(T)[sp].d(T)[sp].[moe](A)p.[moe](T)[sp].[moe](A)}$$$$ (last 3' nucleoside missing)” and “RNA1{[moe](T)[sp].[moe](G)p.[moe]([m5C])p.[moe](A)p.[moe](T)p.[moe](G)p.d(T)[sp].d(A)[sp].d(A)[sp].d([m5C])[sp].d([m5C])[sp].d(T)[sp].d(T)[sp].d(T)[sp].d(A)[sp].d(T)[sp].[moe](A)p.[moe]([m5C])[sp].[moe](A)}$$$$ (last 3' nucleoside missing)” are the same in 3 h FOB score: 0 score 0-7 for the first, 0 score 0-7 for the second.

Compared with “RNA1{[moe](T)[sp].[moe](G)p.[moe]([m5C])p.[moe](A)p.[moe](T)p.d(A)[sp].d(A)[sp].d(T)[sp].d([m5C])[sp].d([m5C])[sp].d([m5C])[sp].d(A)[sp].d(T)[sp].d(T)[sp].d(A)[sp].[moe](T)p.[moe](A)p.[moe]([m5C])[sp].[moe](A)}$$$$ (last 3' nucleoside missing)”, “RNA1{[moe](T)[sp].[moe](G)p.[moe]([m5C])p.[moe](A)p.[moe](T)p.d(G)[sp].d(T)[sp].d(A)[sp].d(A)[sp].d([m5C])[sp].d([m5C])[sp].d(T)[sp].d(T)[sp].d(T)[sp].d(A)[sp].[moe](T)p.[moe](A)p.[moe]([m5C])[sp].[moe](A)}$$$$ (last 3' nucleoside missing)” is higher in 3 h FOB score: 0 score 0-7 for the first, 1 score 0-7 for the second.

“RNA1{[moe](T)[sp].[moe](G)p.[moe]([m5C])p.[moe](A)p.d(T)[sp].d(A)[sp].d(A)[sp].d(T)[sp].d([m5C])[sp].d([m5C])[sp].d([m5C])[sp].d(A)[sp].d(T)[sp].d(T)[sp].[moe](A)p.[moe](T)p.[moe](A)p.[moe]([m5C])[sp].[moe](A)}$$$$ (last 3' nucleoside missing)” and “RNA1{[moe](T)[sp].[moe](G)p.[moe]([m5C])p.[moe](A)p.d(T)[sp].d(G)[sp].d(T)[sp].d(A)[sp].d(A)[sp].d([m5C])[sp].d([m5C])[sp].d(T)[sp].d(T)[sp].d(T)[sp].[moe](A)p.[moe](T)p.[moe](A)p.[moe]([m5C])[sp].[moe](A)}$$$$ (last 3' nucleoside missing)” are the same in 3 h FOB score: 0 score 0-7 for the first, 0 score 0-7 for the second.

Compared with “RNA1{[moe](T)[sp].[moe](G)p.[moe]([m5C])p.[moe](T)p.[moe]([m5C])p.d(A)[sp].d([m5C])[sp].d(T)[sp].d(G)[sp].d(T)[sp].d([m5C])[sp].d([m5C])[sp].d(T)[sp].d(A)[sp].d(T)[sp].[moe](T)p.[moe](G)p.[moe](A)[sp].[moe](A)}$$$$ (last 3' nucleoside missing)”, “RNA1{[moe](T)[sp].[moe](G)p.[moe]([m5C])p.[moe]([m5C])p.[moe](A)p.[moe](T)p.d(T)[sp].d(T)[sp].d([m5C])[sp].d(T)[sp].d(A)[sp].d(T)[sp].d(A)[sp].d(A)[sp].d([m5C])[sp].d(T)[sp].[moe]([m5C])p.[moe](A)[sp].[moe](G)}$$$$ (last 3' nucleoside missing)” is lower in 3 h FOB score: 4 score 0-7 for the first, 0 score 0-7 for the second.

Going from “RNA1{[moe](T)[sp].[moe](T)p.[moe](G)p.[moe](A)p.[moe]([m5C])p.d([m5C])[sp].d(A)[sp].d([m5C])[sp].d(G)[sp].d([m5C])[sp].d(T)[sp].d(T)[sp].d(A)[sp].d([m5C])[sp].d(A)[sp].[moe](T)p.[moe]([m5C])p.[moe](A)[sp].[moe](A)}$$$$ (last 3' nucleoside missing)” to “RNA1{[moe](T)[sp].[moe](T)p.[moe](G)p.[moe](G)p.[moe](G)p.d(T)[sp].d([m5C])[sp].d(T)[sp].d([m5C])[sp].d(T)[sp].d(T)[sp].d(A)[sp].d(G)[sp].d([m5C])[sp].d(T)[sp].[moe](T)p.[moe](T)p.[moe]([m5C])[sp].[moe](T)}$$$$ (last 3' nucleoside missing)”, the 3 h FOB score rises from 2 score 0-7 to 2.67 score 0-7.

First: RNA1{[moe](T)[sp].[moe](T)p.[moe](T)p.[moe](G)p.[moe](G)p.d(G)[sp].d(T)[sp].d([m5C])[sp].d(T)[sp].d([m5C])[sp].d(T)[sp].d(T)[sp].d(A)[sp].d(G)[sp].d([m5C])[sp].[moe](T)p.[moe](T)p.[moe](T)[sp].[moe]([m5C])}$$$$ (last 3' nucleoside missing)
Second: RNA1{[moe](T)[sp].[moe](T)p.[moe](T)p.[moe](G)p.[moe]([m5C])p.[moe]([m5C])p.d(A)[sp].d(T)[sp].d(T)[sp].d(T)[sp].d([m5C])[sp].d(T)[sp].d(A)[sp].d(T)[sp].d(A)[sp].d(A)[sp].[moe]([m5C])p.[moe](T)[sp].[moe]([m5C])}$$$$ (last 3' nucleoside missing)
The 3 h FOB score of the first is higher: 3.33 score 0-7 for the first, 0 score 0-7 for the second.

First: RNA1{[moe](T)[sp].[moe](T)p.[moe](T)p.[moe](G)p.d(G)[sp].d(G)[sp].d([m5C])[sp].d([m5C])[sp].d(A)[sp].d(T)[sp].d(T)[sp].d(T)[sp].d(T)[sp].d([m5C])[sp].[moe](A)p.[moe](T)p.[moe]([m5C])p.[moe](A)[sp].[moe](T)}$$$$ (last 3' nucleoside missing)
Second: RNA1{[moe](T)[sp].[moe](T)p.[moe]([m5C])p.[moe](T)p.[moe](A)p.[moe](T)p.d(T)[sp].d(T)[sp].d(T)[sp].d(A)[sp].d(T)[sp].d(A)[sp].d(A)[sp].d(A)[sp].d(T)[sp].d(G)[sp].[moe]([m5C])p.[moe]([m5C])[sp].[moe](G)}$$$$ (last 3' nucleoside missing)
The 3 h FOB score of the first is lower: 0 score 0-7 for the first, 3 score 0-7 for the second.
